The source of these data is patent publication US20260297081A1, “COMPOUNDS AND METHODS OF TREATING CANCERS” (Cullgen Inc., priority 2023, published 2026).

The assay concerns the target CDK4 (Homo sapiens, UniProt P11802+Q16531). As to the kind of experiment: CDK4 percentage degradation in Calu-1 cells (Table 6). The class given is cell-based. Further details: Cells that express cyclin D1-3 and CDK4/6 proteins were treated with heterobifunctional compounds; endogenous in cells; host or cells: Calu-1. The settings on record: 16 hours; for inhibition at 0.04 µM: 40 nM; for inhibition at 0.2 µM: 200 nM. As to the method:
Calu-(cells were treated with heterobifunctional compounds at 40 nM or 200 nM for 16 hours A: protein percentage degradation […]; B: protein percentage degradation <80%, and ≥50%; C: protein percentage degradation <50%, and ≥30%; D; protein percentage degradation […]; -, data not available.
Calu-1, T47D, MCF7, HCC1428 and other cells were cultured at 37° C. with 5% CO2 in RPMI 1640 or DMEM medium supplemented with 10% fetal bovine serum. Cells were authenticated using the short tandem repeat (STR) assays. Mycoplasma test results were negative. For palbo-resistant cell model, T47D cells were cultured long-term to resistance in the presence of 1 μM Palbociclib. Cells were deemed resistant when growing in the presence of Palbo at the same rate as parental cells.
Cultured cells were washed with cold PBS once and lysed in cold RIPA buffer supplemented with protease inhibitors and phosphatase inhibitors (Beyotime Biotechnology). The solutions were then incubated at 4 ? for 30 min with gentle agitation to fully lysed cells. Cell lysates were centrifuged at 13,000 rpm for 10 min at 4 ? and pellets were discarded. Total protein concentrations in the lysates were determined following BCA assays (Beyotime Biotechnology). Cell lysates were mixed with Laemmli loading buffer and heated at 99° C. for 5 min. Proteins were resolved on SDS-PAGE and visualized using Western ECL Substrate kits on a ChemiDoc MP Imaging system (Bio-Rad). Protein bands were quantitated using the Image Lab software provided by Bio-Rad.

Chain of CDK4 (P11802 2-303 limits assumed): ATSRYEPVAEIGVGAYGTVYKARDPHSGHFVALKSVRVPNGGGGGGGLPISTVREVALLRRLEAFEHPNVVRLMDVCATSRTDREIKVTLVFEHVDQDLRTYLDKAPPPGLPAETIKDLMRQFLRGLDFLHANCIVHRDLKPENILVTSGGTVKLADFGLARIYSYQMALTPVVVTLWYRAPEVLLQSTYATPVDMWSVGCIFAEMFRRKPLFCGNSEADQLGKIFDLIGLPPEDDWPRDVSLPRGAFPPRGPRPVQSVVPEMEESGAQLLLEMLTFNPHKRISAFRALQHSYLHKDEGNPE
Chain of CDK4 (P24385 whole entry partner): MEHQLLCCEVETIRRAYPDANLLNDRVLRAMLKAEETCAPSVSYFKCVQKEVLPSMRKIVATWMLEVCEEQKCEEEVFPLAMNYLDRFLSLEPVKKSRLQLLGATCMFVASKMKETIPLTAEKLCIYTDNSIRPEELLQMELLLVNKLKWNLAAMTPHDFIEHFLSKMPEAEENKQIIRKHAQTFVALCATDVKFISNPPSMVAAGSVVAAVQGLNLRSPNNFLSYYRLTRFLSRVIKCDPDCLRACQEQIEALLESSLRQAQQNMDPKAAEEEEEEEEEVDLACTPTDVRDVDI
Chain of CDK4 (Q16531 2-1140 limits assumed): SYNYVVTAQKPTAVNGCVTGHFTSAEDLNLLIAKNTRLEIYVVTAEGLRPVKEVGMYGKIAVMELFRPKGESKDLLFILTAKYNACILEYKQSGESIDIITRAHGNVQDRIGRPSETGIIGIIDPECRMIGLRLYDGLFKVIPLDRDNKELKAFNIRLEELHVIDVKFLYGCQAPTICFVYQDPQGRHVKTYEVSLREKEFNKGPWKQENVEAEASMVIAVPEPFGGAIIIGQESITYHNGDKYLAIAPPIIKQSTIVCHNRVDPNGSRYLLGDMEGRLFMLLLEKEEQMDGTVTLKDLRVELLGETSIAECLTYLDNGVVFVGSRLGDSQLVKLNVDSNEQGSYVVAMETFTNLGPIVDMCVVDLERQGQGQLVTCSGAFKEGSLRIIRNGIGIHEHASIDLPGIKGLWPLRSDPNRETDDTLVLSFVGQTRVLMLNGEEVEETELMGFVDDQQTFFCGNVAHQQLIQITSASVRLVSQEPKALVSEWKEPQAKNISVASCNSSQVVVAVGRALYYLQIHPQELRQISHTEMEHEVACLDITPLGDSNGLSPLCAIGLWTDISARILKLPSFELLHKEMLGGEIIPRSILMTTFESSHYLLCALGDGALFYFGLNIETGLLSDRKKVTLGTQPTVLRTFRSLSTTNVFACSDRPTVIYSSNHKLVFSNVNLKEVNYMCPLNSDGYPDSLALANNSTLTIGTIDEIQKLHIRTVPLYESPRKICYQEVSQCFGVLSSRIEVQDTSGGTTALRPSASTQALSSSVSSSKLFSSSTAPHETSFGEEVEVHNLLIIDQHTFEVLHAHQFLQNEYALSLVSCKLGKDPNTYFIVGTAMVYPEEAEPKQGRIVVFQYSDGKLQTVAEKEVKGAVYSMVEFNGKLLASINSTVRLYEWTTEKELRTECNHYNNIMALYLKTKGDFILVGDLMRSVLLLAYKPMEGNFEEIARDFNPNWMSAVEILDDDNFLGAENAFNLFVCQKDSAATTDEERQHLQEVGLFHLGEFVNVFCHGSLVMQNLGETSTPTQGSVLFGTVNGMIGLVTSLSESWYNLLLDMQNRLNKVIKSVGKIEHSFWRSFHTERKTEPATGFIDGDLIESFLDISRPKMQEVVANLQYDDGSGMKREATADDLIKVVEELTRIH

In turn, `CNc1ccc(C(=O)Nc2ccc(N(C)C)nn2)c(NCC2CC(CNC(=O)CN3CCN(c4ccc(Nc5ncc6c(C)c(C(C)=O)c(=O)n(C7CCCC7)c6n5)nc4)CC3)C2)n1` (stereo not shown) [CPD-188, 2-(((3-((2-(4-(6-((6-acetyl-8-cyclopentyl-5-methyl-7-oxo-7,8-dihydropyrido[2,3-d]pyrimidin-2-yl)amino)pyridin-3-yl)piperazin-1-yl)acetamido)methyl)cyclobutyl)methyl)amino)-N-(6-(dimethylamino)pyridazin-3-yl)-6-(methylamino)nicotinamide] yielded an inhibition at 0.04 µM of 50 to 80% and an inhibition at 0.2 µM of 50 to 80%.
Turning to `CNc1ccc(C(=O)Nc2cc(C(F)(F)F)n(C)n2)c(NC2CC3(CC(NC(=O)CN4CCN(c5ccc(Nc6ncc7c(C)c(C(C)=O)c(=O)n(C8CCCC8)c7n6)nc5)CC4)C3)C2)n1` (stereo not shown) [CPD-127, 2-((6-(2-(4-(6-((6-Acetyl-8-cyclopentyl-5-methyl-7-oxo-7,8-dihydropyrido[2,3-d]pyrimidin-2-yl)amino)pyridin-3-yl)piperazin-1-yl)acetamido)spiro[3.3]heptan-2-yl)amino)-N-(1-methyl-5-(trifluoromethyl)-1H-pyrazol-3-yl)-6-(methylamino)nicotinamide], the inhibition at 0.04 µM is under 30% and the inhibition at 0.2 µM was under 30%.
In turn, `CNc1ccc(C(=O)Nc2ccc(N(C)C)nn2)c(NC2CCN(C(=O)CN3CCN(c4ccc(Nc5ncc6c(C)c(C(C)=O)c(=O)n(C7CCCC7)c6n5)nc4)CC3)C2)n1` (stereo not shown) [CPD-201, 2-((1-(2-(4-(6-((6-acetyl-8-cyclopentyl-5-methyl-7-oxo-7,8-dihydropyrido[2,3-d]pyrimidin-2-yl)amino)pyridin-3-yl)piperazin-1-yl)acetyl)pyrrolidin-3-yl)amino)-N-(6-(dimethylamino)pyridazin-3-yl)-6-(methylamino)nicotinamide] came in with an inhibition at 0.04 µM of 30 to 50% and an inhibition at 0.2 µM of 50 to 80%.
On the same counts, the results for `CNc1ccc(C(=O)Nc2ccc(F)c(C3CC3)n2)c(NCCCCCNC(=O)CN2CCN(c3ccc(Nc4ncc5c(C)c(C(C)=O)c(=O)n(C6CCCC6)c5n4)nc3)CC2)n1` [CPD-113, 2-((5-(2-(4-(6-((6-Acetyl-8-cyclopentyl-5-methyl-7-oxo-7,8-dihydropyrido[2,3-d]pyrimidin-2-yl)amino)pyridin-3-yl)piperazin-1-yl)acetamido)pentyl)amino)-N-(6-cyclopropyl-5-fluoropyridin-2-yl)-6-(methylamino)nicotinamide] are 30 to 50% and 50 to 80%.
Take `CNc1ccc(C(=O)Nc2cc(C)n(C)n2)c(NC[C@H]2CC[C@H](NC(=O)CN3CCN(c4ccc(Nc5ncc6c(C)c(C(C)=O)c(=O)n(C7CCCC7)c6n5)nc4)CC3)CC2)n1` [CPD-131, 2-(((trans-4-(2-(4-(6-((6-Acetyl-8-cyclopentyl-5-methyl-7-oxo-7,8-dihydropyrido[2,3-d]pyrimidin-2-yl)amino)pyridin-3-yl)piperazin-1-yl)acetamido)cyclohexyl)methyl)amino)-N-(1,5-dimethyl-1H-pyrazol-3-yl)-6-(methylamino)nicotinamide]: the inhibition at 0.04 µM is under 30% and the inhibition at 0.2 µM is 50 to 80%.
`CNc1ccc(C(=O)Nc2ccc(OC)nn2)c(NCCCCCNC(=O)CN2CCN(c3ccc(Nc4ncc5c(C)c(C(C)=O)c(=O)n(C6CCCC6)c5n4)nc3)CC2)n1` [CPD-108, 2-((5-(2-(4-(6-((6-Acetyl-8-cyclopentyl-5-methyl-7-oxo-7,8-dihydropyrido[2,3-d]pyrimidin-2-yl)amino)pyridin-3-yl)piperazin-1-yl)acetamido)pentyl)amino)-N-(6-methoxypyridazin-3-yl)-6-(methylamino)nicotinamide]: the inhibition at 0.04 µM is 30 to 50% and the inhibition at 0.2 µM fell in the range of 30 to 50%.
In turn, `CNc1ccc(C(=O)Nc2ccc(N(C)C)nn2)c(NCCC2CCN(C(=O)CN3CCN(c4ccc(Nc5ncc6c(C)c(C(C)=O)c(=O)n(C7CCCC7)c6n5)nc4)CC3)CC2)n1` [CPD-89, 2-((2-(1-(2-(4-(6-((6-Acetyl-8-cyclopentyl-5-methyl-7-oxo-7,8-dihydropyrido[2,3-d]pyrimidin-2-yl)amino)pyridin-3-yl)piperazin-1-yl)acetyl)piperidin-4-yl)ethyl)amino)-N-(6-(dimethylamino)pyridazin-3-yl)-6-(methylamino)nicotinamide] gave an inhibition at 0.04 µM of 50 to 80% and an inhibition at 0.2 µM of 50 to 80%.
In turn, `CNc1ccc(C(=O)Nc2ccc(F)c(C3CC3)n2)c(NC2CC3(CC(NC(=O)CN4CCN(c5ccc(Nc6ncc7c(C)c(C(C)=O)c(=O)n(C8CCCC8)c7n6)nc5)CC4)C3)C2)n1` (stereo not shown) [CPD-128, 2-((6-(2-(4-(6-((6-Acetyl-8-cyclopentyl-5-methyl-7-oxo-7,8-dihydropyrido[2,3-d]pyrimidin-2-yl)amino)pyridin-3-yl)piperazin-1-yl)acetamido)spiro[3.3]heptan-2-yl)amino)-N-(6-cyclopropyl-5-fluoropyridin-2-yl)-6-(methylamino)nicotinamide] displayed an inhibition at 0.04 µM of 50 to 80% and an inhibition at 0.2 µM of 50 to 80%.
Consider `CNc1ccc(C(=O)Nc2ccc(C(F)(F)F)c(C3CC3)n2)c(NC2CC3(CC(NC(=O)CN4CCN(c5ccc(Nc6ncc7c(C)c(C(C)=O)c(=O)n(C8CCCC8)c7n6)nc5)CC4)C3)C2)n1` (stereo not shown) [CPD-87, 2-((6-(2-(4-(6-((6-Acetyl-8-cyclopentyl-5-methyl-7-oxo-7,8-dihydropyrido[2,3-d]pyrimidin-2-yl)amino)pyridin-3-yl)piperazin-1-yl)acetamido)spiro[3.3]heptan-2-yl)amino)-N-(6-cyclopropyl-5-(trifluoromethyl)pyridin-2-yl)-6-(methylamino)nicotinamide], for which the inhibition at 0.04 µM is under 30% and the inhibition at 0.2 µM is under 30%.
The molecule `CNc1ccc(C(=O)Nc2cc(C)n(C(C)C)n2)c(NC2CC3(CC(NC(=O)CN4CCN(c5ccc(Nc6ncc7c(C)c(C(C)=O)c(=O)n(C8CCCC8)c7n6)nc5)CC4)C3)C2)n1` (stereo not shown) [CPD-99, 2-((6-(2-(4-(6-((6-Acetyl-8-cyclopentyl-5-methyl-7-oxo-7,8-dihydropyrido[2,3-d]pyrimidin-2-yl)amino)pyridin-3-yl)piperazin-1-yl)acetamido)spiro[3.3]heptan-2-yl)amino)-N-(1-isopropyl-5-methyl-1H-pyrazol-3-yl)-6-(methylamino)nicotinamide] came in with an inhibition at 0.04 µM of 30 to 50% and an inhibition at 0.2 µM of 50 to 80%.
`CC(=O)c1c(C)c2cnc(Nc3ccc(N4CCN(CC(=O)NC5CC6(C5)CC(Nc5nc(C)ccc5C(=O)Nc5cc(C)on5)C6)CC4)cn3)nc2n(C2CCCC2)c1=O` (stereo not shown) [CPD-192, ((6-(2-(4-(6-((6-acetyl-8-cyclopentyl-5-methyl-7-oxo-7,8-dihydropyrido[2,3-d]pyrimidin-2-yl)amino)pyridin-3-yl)piperazin-1-yl)acetamido)spiro[3.3]heptan-2-yl)amino)-6-methyl-N-(5-methylisoxazol-3-yl)nicotinamide] returned an inhibition at 0.04 µM of under 30% and an inhibition at 0.2 µM of under 30%.
The molecule `CNc1ccc(C(=O)Nc2cnn(C)c2)c(NC2CC3(CC(NC(=O)CN4CCN(c5ccc(Nc6ncc7c(C)c(C(C)=O)c(=O)n(C8CCCC8)c7n6)nc5)CC4)C3)C2)n1` (stereo not shown) [CPD-94, 2-((6-(2-(4-(6-((6-Acetyl-8-cyclopentyl-5-methyl-7-oxo-7,8-dihydropyrido[2,3-d]pyrimidin-2-yl)amino)pyridin-3-yl)piperazin-1-yl)acetamido)spiro[3.3]heptan-2-yl)amino)-N-(1-methyl-1H-pyrazol-4-yl)-6-(methylamino)nicotinamide] returned an inhibition at 0.04 µM of under 30% and an inhibition at 0.2 µM of 30 to 50%.
For the molecule `CNc1ccc(C(=O)Nc2ccc(N(C)C)nn2)c(NC2CC(NC(=O)N3CCN(c4ccc(Nc5ncc6c(C)c(C(C)=O)c(=O)n(C7CCCC7)c6n5)nc4)CC3)C2)n1` (stereo not shown) [CPD-151, 4-(6-((6-acetyl-8-cyclopentyl-5-methyl-7-oxo-7,8-dihydropyrido[2,3-d]pyrimidin-2-yl)amino)pyridin-3-yl)-N-(3-((3-((6-(dimethylamino)pyridazin-3-yl)carbamoyl)-6-(methylamino)pyridin-2-yl)amino)cyclobutyl)piperazine-1-carboxamide], the inhibition at 0.04 µM fell in the range of 50 to 80% and the inhibition at 0.2 µM was over 80%.
With `CNc1ccc(C(=O)Nc2ccc(N(C)C)nn2)c(NC2CN(CCNC(=O)CN3CCN(c4ccc(Nc5ncc6c(C)c(C(C)=O)c(=O)n(C7CCCC7)c6n5)nc4)CC3)C2)n1` [CPD-107, 2-((1-(2-(2-(4-(6-((6-Acetyl-8-cyclopentyl-5-methyl-7-oxo-7,8-dihydropyrido[2,3-d]pyrimidin-2-yl)amino)pyridin-3-yl)piperazin-1-yl)acetamido)ethyl)azetidin-3-yl)amino)-N-(6-(dimethylamino)pyridazin-3-yl)-6-(methylamino)nicotinamide], the inhibition at 0.04 µM is under 30% and the inhibition at 0.2 µM is under 30%.
